Test system: Prostaglandin E2 (PGE2)
Assay: Anti-inflammatory activity: PGE2 quantification by ELISA in cells stimulated by IL-1α
Format: cell-based
Conditions: IL-1α (5 pM), Cycloheximide 100 µg/ml
Experimental: When cells are stimulated by an inflammatory agent PGE2 is synthesized de novo and released into the extracellular space. Thus quantification of PGE2 is used to asses the anti-inflammatory activity products.
In the present example the anti-inflammatory activity of the extract of example 2 was determined by quantification of PGE2 in cells stimulated by IL-1α using a kit for an enzyme-linked immunosorbent assay (ELISA). The kit used was Prostaglandin E2 EIA kit Item n° 514010 from Cayman Chemical.
Prostaglandin E2 assay is based on competition between the PGE^2 to be determined and a fixed amount of added PGE2-acetylcholinesterase (AChE) conjugate (PGE2 tracer) for a limited amount of PGE2 monoclonal antibody. The amount of PGE2 tracer able to bind the PGE2 monoclonal antibody will be inversely proportional to the concentration of PGE2 in the well. Both the antibody-PGE2 complex and then antibody-PGE2 tracer complex bind to polyclonal goat anti-mouse IgG previously bound to the well. Then the plate is washed to remove any unbound reagent and Ellman's reagent is added to determine the amount of AChE bound to the well. […] The intensity of this color, determined by UV-Vis spectrophotometry, is proportional to the amount of PGE2 tracer bound […], which is inversely proportional to the amount of PGE2 present in the free well during incubation.

## C[C@@H]1C[C@@H]([C@H](O)CC2CC(=O)NC(=O)C2)C(=O)[C@@H](C)C1 [Cycloheximide]
  PGE2: 31.85 pg/mL
  inhibition at 100 µg/mL: 97.6%
